In US8349880B2, “Bicyclic compounds for the reduction of beta-amyloid production” (Bristol-Myers Squibb Company, priority 2009, dated 2013) one finds IC50 data, which are given here for 17 molecules.

The first test deals with Aβ1-42 production. The experiment in a line: Cellular assay for inhibition of Aβ1-42 production (H4 APP751 SWE clone 8.20). Type of test: cell-based. To be noted: 19 h, H4 APP751 SWE clone 8.20 cells, 19 h incubation; read-out: Activity Rating (Aβ42 cellular IC50, given as a number). Put shortly:
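H4 cells stably expressing APP751 with the Swedish mutation (1.5×10^4 cells/well) incubated with compound for 19 h at 37° C in DMEM with 0.0125% BSA. Secreted Aβ42 measured overnight at 4° C by HTRF-type pairing of 565 (Aβ42 neoepitope) and 26D6 (N-terminal) antibodies. IC50 from curve fit.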
As for `Cc1ncn(-c2ccc(Nc3nc4n(n3)CCC3(CC4c4ccc(F)cc4)OCCO3)cc2F)n1` (centres unmarked) [Example 158, N-(3-fluoro-4-(3-methyl-1H-1,2,4-triazol-1-yl)phenyl)-9-(4-fluorophenyl)-5,6,8,9-tetrahydrospiro[[1,2,4]triazolo[1,5-a]azepine-7,2′-[1,3]dioxolan]-2-amine 2,2,2-trifluoroacetate], the IC50 was found to be 16 nM.
Take `COc1cc(Nc2nc3n(n2)CCCCC3c2ccc(OC(F)(F)F)cc2)cc(F)c1-n1cnc(C)n1` (centres unmarked) [Example 167, N-(3-fluoro-5-methoxy-4-(3-methyl-1H-1,2,4-triazol-1-yl)phenyl)-9-(4-(trifluoromethoxy)phenyl)-6,7,8,9-tetrahydro-5H-[1,2,4]triazolo[1,5-a]azepin-2-amine]: the IC50 turned out to be 44 nM.
For `COc1cc(Nc2nc3n(n2)CCCCC3c2ccc(-n3cncn3)cc2)ccc1-n1cnc(Cl)c1` (centres unmarked) [Example 172, 9-(4-(1H-1,2,4-triazol-1-yl)phenyl)-N-(4-(4-chloro-1H-imidazol-1-yl)-3-methoxyphenyl)-6,7,8,9-tetrahydro-5H-[1,2,4]triazolo[1,5-a]azepin-2-amine 2,2,2-trifluoroacetate], the IC50 was found to be 64 nM.

Still in this test, the particulars now being: 19 h, H4 APP751 SWE clone 8.20 cells, 19 h incubation; read-out: Activity Rating (based on Aβ42 cellular IC50 values).
Turning to `COc1cc(Nc2nc3n(n2)CCC(OC)(OC)CC3c2ccc(F)cc2)ccc1-n1cnc(Cl)c1` (centres unmarked) [Example 145, N-(4-(4-chloro-1H-imidazol-1-yl)-3-methoxyphenyl)-9-(4-fluorophenyl)-7,7-dimethoxy-6,7,8,9-tetrahydro-5H-[1,2,4]triazolo[1,5-a]azepin-2-amine], the IC50 is less than 10 nM.
Same read-out and setting: the result for `CCC1(O)CCn2nc(Nc3ccc(-n4cnc(Cl)c4)c(OC)c3)nc2C(c2ccc(F)cc2)C1` (centres unmarked) [Example 146, 2-(4-(4-chloro-1H-imidazol-1-yl)-3-methoxyphenylamino)-7-ethyl-9-(4-fluorophenyl)-6,7,8,9-tetrahydro-5H-[1,2,4]triazolo[1,5-a]azepin-7-ol] reads less than 10 nM; that for `COc1cc(Nc2nc3n(n2)CCCCC3c2ccccc2)ccc1-n1cnc(Cl)c1` (centres unmarked) [Example 159, 2,2,2-trifluoroacetate], less than 10 nM.
The same measure, in the same setting: the result for `Cc1ncnn1-c1ccc(Nc2nc3n(n2)CCCCC3c2ccc(OC(F)(F)F)c(F)c2)cc1F` (centres unmarked) [Example 160, N-(3-fluoro-4-(5-methyl-1H-1,2,4-triazol-1-yl)phenyl)-9-(3-fluoro-4-(trifluoromethoxy)phenyl)-6,7,8,9-tetrahydro-5H-[1,2,4]triazolo[1,5-a]azepin-2-amine] reads less than 10 nM.
The same measure, in the same setting: the result for `COc1cc(Nc2nc3n(n2)CCCCC3c2ccc(OCC(F)F)cc2)ccc1-n1cnc(Cl)c1` (centres unmarked) [Example 161, N-(4-(4-chloro-1H-imidazol-1-yl)-3-methoxyphenyl)-9-(4-(2,2-difluoroethoxy)phenyl)-6,7,8,9-tetrahydro-5H-[1,2,4]triazolo[1,5-a]azepin-2-amine] reads 10 to 100 nM; that for `Cc1ncn(-c2ccc(Nc3nc4n(n3)CCCCC4c3ccc(OC(F)(F)F)c(F)c3)cc2F)n1` (centres unmarked) [Example 164, N-(3-fluoro-4-(3-methyl-1H-1,2,4-triazol-1-yl)phenyl)-9-(3-fluoro-4-(trifluoromethoxy)phenyl)-6,7,8,9-tetrahydro-5H-[1,2,4]triazolo[1,5-a]azepin-2-amine], less than 10 nM.
In the case of `COc1cc(Nc2nc3n(n2)CCCCC3c2ccc(Br)cc2)ccc1-n1cnc(Cl)c1` (centres unmarked) [Example 170, 9-(4-bromophenyl)-N-(4-(4-chloro-1H-imidazol-1-yl)-3-methoxyphenyl)-6,7,8,9-tetrahydro-5H-[1,2,4]triazolo[1,5-a]azepin-2-amine], the IC50 is less than 10 nM.
Same read-out and setting: the result for `COc1cc(Nc2nc3n(n2)CCCCC3c2ccc(-n3cccn3)cc2)ccc1-n1cnc(Cl)c1` (centres unmarked) [Example 171, 9-(4-(1H-pyrazol-1-yl)phenyl)-N-(4-(4-chloro-1H-imidazol-1-yl)-3-methoxyphenyl)-6,7,8,9-tetrahydro-5H-[1,2,4]triazolo[1,5-a]azepin-2-amine 2,2,2-trifluoroacetate] reads 10 to 100 nM.
For `COc1cc(Nc2nc3n(n2)CCCCC3c2ccc(-n3ccnc3)cc2)ccc1-n1cnc(Cl)c1` (centres unmarked) [Example 173, 9-(4-(1H-imidazol-1-yl)phenyl)-N-(4-(4-chloro-1H-imidazol-1-yl)-3-methoxyphenyl)-6,7,8,9-tetrahydro-5H-[1,2,4]triazolo[1,5-a]azepin-2-amine 2,2,2-trifluoroacetate], the IC50 lay in the range of 100 to 1000 nM.
Same read-out and setting: the result for `COc1cc(Nc2nc3n(n2)CCCCC3c2ccc(-n3cc(C)cn3)cc2)ccc1-n1cnc(Cl)c1` (centres unmarked) [Example 174, N-(4-(4-chloro-1H-imidazol-1-yl)-3-methoxyphenyl)-9-(4-(4-methyl-1H-pyrazol-1-yl)phenyl)-6,7,8,9-tetrahydro-5H-[1,2,4]triazolo[1,5-a]azepin-2-amine 2,2,2-trifluoroacetate] reads less than 10 nM; that for `COc1cc(Nc2nc3n(n2)CCCCC3c2ccc(OC(F)(F)F)cc2)c(F)cc1-n1cnc(C)n1` (centres unmarked) [Example 175, N-(2-fluoro-5-methoxy-4-(3-methyl-1H-1,2,4-triazol-1-yl)phenyl)-9-(4-(trifluoromethoxy)phenyl)-6,7,8,9-tetrahydro-5H-[1,2,4]triazolo[1,5-a]azepin-2-amine], 10 to 100 nM.

Still in this test, the particulars now being: H4 APP751 SWE clone 8.20 cells, 19 h incubation; read-out: Activity Rating (based on Aβ42 cellular IC50 values).
Turning to “(R)—N-(3-fluoro-4-(5-methyl-1H-1,2,4-triazol-1-yl)phenyl)-9-(4-fluorophenyl)-6,7,8,9-tetrahydro-5H-[1,2,4]triazolo azepin-2-amine [Example 95]”, the IC50 lay within 10 to 100 nM.
Still for that read-out and setting: under “(S)—N-(2-fluoro-5-methoxy-4-(3-methyl-1H-1,2,4-triazol-1-yl)phenyl)-9-(4-(2,2,2-trifluoroethoxy)phenyl)-6,7,8,9-tetrahydro-5H-[1,2,4]triazolo azepin-2-amine [Example 117]” stands 10 to 100 nM; under “S)—N-(4-(4-chloro-1H-imidazol-1-yl)-3-methoxyphenyl)-9-(3,4-difluorophenyl)-6,7,8,9-tetrahydro-5H-[1,2,4]triazolo[1,5-a]azepin-2-amine [Example 23]”, less than 10 nM.
